Measurements reported in patent publication US11802113B2, “Substituted pyrazole compounds, compositions containing same, and use thereof” (Shenzhen TargetRx, Inc., priority 2019, dated 2023).

Key:
[1] = Metabolic stability evaluation, rat liver microsome; assay type: in vitro ADME; conditions: SD, liver microsomes, pH 7.4, rat liver microsome 0.5 mg/mL, compound 1 μM, NADPH, 37° C.; for microsomal CLint at 1 μM: read-out: RLM CL; for half-life at 1 μM: read-out: RLM T1/2
Method: (§1) (4) Metabolic Stability Evaluation
(§2) Microsome experiment: human liver microsome: 0.5 mg/mL, Xenotech; rat liver microsome: 0.5 mg/mL, Xenotech; coenzyme (NADPH/NADH): 1 mM, Sigma Life Science; magnesium chloride: 5 mM, 100 mM phosphate buffer (pH 7.4).
(§3) Preparation of stock solution: a certain amount of the example compound powder and control compound powder were accurately weighed, and respectively dissolved to 5 mM with DMSO.
(§4) Preparation of phosphate buffer (100 mM, pH7.4): 150 mL of 0.5M potassium dihydrogen phosphate and 700 mL of 0.5M dipotassium hydrogen phosphate prepared beforehand were mixed, with pH of the mixture adjusted to 7.4 with 0.5M dipotassium hydrogen phosphate solution. Before use, the mixture was diluted by 5 folds with ultrapure water and magnesium chloride was added to obtain the phosphate buffer (100 mM), which contains 100 mM potassium phosphate, 3.3 mM magnesium chloride, and has pH 7.4.
(§5) NADPH regeneration system solution (containing 6.5 mM NADP, 16.5 mM G-6-P, 3 U/mL G-6-P D, 3.3 mM magnesium chloride) was prepared, and placed on wet ice before use.
(§6) Preparation of stop solution: a solution of 50 ng/mL propranolol hydrochloride and 200 ng/mL tolbutamide (internal standard) in acetonitrile. 25057.5 μL of phosphate buffer (pH 7.4) was taken into a 50 mL centrifuge tube, added with 812.5 μL of human liver microsome, and mixed well to obtain a liver microsome diluent with a protein concentration of 0.625 mg/mL. 25057.5 μL of phosphate buffer (pH 7.4) was taken into a 50 mL centrifuge tube, added with 812.5 μL of SD rat liver microsome, and mixed well to obtain a liver microsome diluent with a protein concentration of 0.625 mg/mL.
(§7) Incubation of the samples: the stock solutions of the corresponding compounds were respectively diluted to 0.25 mM with an aqueous solution containing 70% acetonitrile to obtain working solutions for later use. 398 μL of human liver microsome and rat liver microsome diluents were respectively taken and added to a 96-well incubation plate (N=2), added with 2 μL of 0.25 mM working solution respectively, and mixed well.
Determination of metabolic stability: 300 μL of pre-cooled stop solution was added to each well of a 96-well deep-well plate, and the plate was placed on ice as a stop plate. […]
Data analysis: the peak areas of the corresponding compound and internal standard were detected through the LC-MS/MS system, and the ratio of the peak area of the compound to the internal standard was calculated. […]
The compounds of the present invention and the corresponding non-deuterated compounds were simultaneously tested for comparison and evaluated for the metabolic stability in human and rat liver microsomes. […]

[2] = Metabolic stability evaluation, human liver microsome; assay type: in vitro ADME; conditions: liver microsomes, pH 7.4, human liver microsome 0.5 mg/mL, compound 1 μM, NADPH, 37° C.; for microsomal CLint at 1 μM: read-out: HLM CL; for half-life at 1 μM: read-out: HLM T1/2
Method: as §1, §2, §3, §4, §5, §6, §7
Determination of metabolic stability: 300 μL of pre-cooled stop solution was added to each well of a 96-well deep-well plate, and the plate was placed on ice as a stop plate. The 96-well incubation plate and the NADPH regeneration system were placed in a 37° C. water bath, shaken at 100 rpm, and pre-incubated for 5 minutes. 80 μL of incubation solution was taken out of each well of the incubation plate and added to the stop plate, mixed well, and supplemented with 20 μL of NADPH regeneration system solution to obtain the 0 min sample. Then 80 μL of NADPH regeneration system solution was added to each well of the incubation plate to initiate the reaction and start timing. The reaction concentration of the corresponding compound was 1 μM, and the protein concentration was 0.5 mg/mL. At 10, 30, and 90 minutes of reaction, 100 μL of the reaction solution was taken and added to the stop plate, and vortexed for 3 minutes to stop the reaction. The stop plate was centrifuged at 5000×g for 10 min at 4° C. 100 μL of supernatant was taken to a 96-well plate pre-added with 100 μL of distilled water, mixed well, and subjected to sample analysis by LC-MS/MS.
Data analysis: the peak areas of the corresponding compound and internal standard were detected through the LC-MS/MS system, and the ratio of the peak area of the compound to the internal standard was calculated. The natural logarithm of the remaining percentage of the compound was plotted against time to measure the slope and calculate t1/2 and CLint according to the following equations, where V/M is equal to 1/protein concentration.
The compounds of the present invention and the corresponding non-deuterated compounds were simultaneously tested for comparison and evaluated for the metabolic stability in human and rat liver microsomes. The non-deuterated compound Darolutamide was used as the control.

SMILES: CC(O)c1cc(C(=O)N[C@@H](C)Cn2ccc(-c3ccc(C#N)c(Cl)c3)n2)[nH]n1 (stereo partly drawn) [Darolutamide, N—((S)-1-(3-(3-chloro-4-cyanophenyl)-1H-pyrazol-1-yl)-prop-2-yl)-5-(1-hydroxyethyl)-1H-pyrazole-3-carboxamide, reference compound]
- microsomal CLint at 1 μM [1]: 12.2 µL/min/mg
- half-life at 1 μM [1]: 1.9 h
- microsomal CLint at 1 μM [2]: 8.5 µL/min/mg
- half-life at 1 μM [2]: 2.72 h

SMILES: [2H]C(C)(O)c1cc(C(=O)N[C@@H](C)Cn2ccc(-c3ccc(C#N)c(Cl)c3)n2)n[nH]1 (stereo partly drawn) [Example 1, N—((S)-1-(3-(3-chloro-4-cyanophenyl)-1H-pyrazol-1-yl)prop-2-yl)-5-(1-hydroxylethyl-1-d)-1H-pyrazole-3-carboxamide]
- microsomal CLint at 1 μM [2]: 6.2 µL/min/mg
- half-life at 1 μM [2]: 3.7 h

SMILES: [2H]C([2H])([2H])C(O)c1cc(C(=O)N[C@@H](C)Cn2ccc(-c3ccc(C#N)c(Cl)c3)n2)n[nH]1 (stereo partly drawn) [Example 2, N—((S)-1-(3-(3-chloro-4-cyanophenyl)-1H-pyrazol-1-yl)prop-2-yl)-5-(1-hydroxylethyl-2,2,2-d3)-1H-pyrazole-3-carboxamide]
- microsomal CLint at 1 μM [2]: 9.1 µL/min/mg
- half-life at 1 μM [2]: 2.55 h

SMILES: [2H]C([2H])([2H])C([2H])(O)c1cc(C(=O)N[C@@H](C)Cn2ccc(-c3ccc(C#N)c(Cl)c3)n2)n[nH]1 (stereo partly drawn) [Example 3, N—((S)-1-(3-(3-chloro-4-cyanophenyl)-1H-pyrazol-1-yl)prop-2-yl)-5-(1-hydroxylethyl-1,2,2,2-d4)-1H-pyrazole-3-carboxamide]
- microsomal CLint at 1 μM [2]: 4 µL/min/mg
- half-life at 1 μM [2]: 5.83 h

SMILES: [2H]C([2H])([C@H](C)NC(=O)c1cc(C(C)O)[nH]n1)n1ccc(-c2ccc(C#N)c(Cl)c2)n1 (stereo partly drawn) [Example 4, N—((S)-1-(3-(3-chloro-4-cyanophenyl)-1H-pyrazol-1-yl)prop-2-yl-1,1-d2)-5-(1-hydroxyethyl)-1H-pyrazole-3-carboxamide]
- microsomal CLint at 1 μM [2]: 8.5 µL/min/mg
- half-life at 1 μM [2]: 2.7 h

SMILES: [2H]C(C)(O)c1cc(C(=O)N[C@@H](C)C([2H])([2H])n2ccc(-c3ccc(C#N)c(Cl)c3)n2)n[nH]1 (stereo partly drawn) [Example 5, N—((S)-1-(3-(3-chloro-4-cyanophenyl)-1H-pyrazol-1-yl)prop-2-yl-1,1-d2)-5-(1-hydroxyethyl-1-d)-1H-pyrazole-3-carboxamide]
- microsomal CLint at 1 μM [2]: 4.3 µL/min/mg
- half-life at 1 μM [2]: 5.36 h

SMILES: [2H]C([2H])([2H])C(O)c1cc(C(=O)N[C@@H](C)C([2H])([2H])n2ccc(-c3ccc(C#N)c(Cl)c3)n2)n[nH]1 (stereo partly drawn) [Example 6, N—((S)-1-(3-(3-chloro-4-cyanophenyl)-1H-pyrazol-1-yl)prop-2-yl-1,1-d2)-5-(1-hydroxyethyl-2,2,2-d3)-1H-pyrazole-3-carboxamide]
- microsomal CLint at 1 μM [2]: 6.4 µL/min/mg
- half-life at 1 μM [2]: 3.62 h

SMILES: [2H]C([2H])([C@H](C)NC(=O)c1cc(C([2H])(O)C([2H])([2H])[2H])[nH]n1)n1ccc(-c2ccc(C#N)c(Cl)c2)n1 (stereo partly drawn) [Example 7, N—((S)-1-(3-(3-chloro-4-cyanophenyl)-1H-pyrazol-1-yl)prop-2-yl-1,1-d2)-5-(1-hydroxyethyl-1,2,2,2-d4)-1H-pyrazole-3-carboxamide]
- microsomal CLint at 1 μM [1]: 7.1 µL/min/mg
- half-life at 1 μM [1]: 3.25 h
- microsomal CLint at 1 μM [2]: 6.9 µL/min/mg
- half-life at 1 μM [2]: 3.36 h

SMILES: [2H][C@](C)(Cn1ccc(-c2ccc(C#N)c(Cl)c2)n1)NC(=O)c1cc(C(C)O)[nH]n1 (stereo partly drawn) [Example 8, N—((S)-1-(3-(3-chloro-4-cyanophenyl)-1H-pyrazol-1-yl)prop-2-yl-2-d)-5-(1-hydroxyethyl)-1H-pyrazole-3-carboxamide]
- microsomal CLint at 1 μM [2]: 7.3 µL/min/mg
- half-life at 1 μM [2]: 3.17 h

SMILES: [2H]C([2H])([2H])[C@H](NC(=O)c1cc(C(C)O)[nH]n1)C([2H])([2H])n1ccc(-c2ccc(C#N)c(Cl)c2)n1 (stereo partly drawn) [Example 9, N—((S)-1-(3-(3-chloro-4-cyanophenyl)-1H-pyrazol-1-yl)prop-2-yl-1,1,3,3,3-d5)-5-(1-hydroxyethyl)-1H-pyrazole-3-carboxamide]
- microsomal CLint at 1 μM [2]: 8.1 µL/min/mg
- half-life at 1 μM [2]: 2.85 h

SMILES: [2H]C(C)(O)c1cc(C(=O)N[C@@H](C([2H])([2H])[2H])C([2H])([2H])n2ccc(-c3ccc(C#N)c(Cl)c3)n2)n[nH]1 (stereo partly drawn) [Example 10, N—((S)-1-(3-(3-chloro-4-cyanophenyl)-1H-pyrazol-1-yl)prop-2-yl-1,1,3,3,3-d5)-5-(1-hydroxyethyl-1-d)-1H-pyrazole-3-carboxamide]
- microsomal CLint at 1 μM [2]: 4.4 µL/min/mg
- half-life at 1 μM [2]: 5.29 h
